Molecules are shown by their SMILES.

The target in one experiment is T1, MCHR1 (Rattus norvegicus, UniProt P97639).
T1 construct: from tissue; host or cells: whole animal: male Sprague Dawley rats
T1 sequence (P97639 whole entry): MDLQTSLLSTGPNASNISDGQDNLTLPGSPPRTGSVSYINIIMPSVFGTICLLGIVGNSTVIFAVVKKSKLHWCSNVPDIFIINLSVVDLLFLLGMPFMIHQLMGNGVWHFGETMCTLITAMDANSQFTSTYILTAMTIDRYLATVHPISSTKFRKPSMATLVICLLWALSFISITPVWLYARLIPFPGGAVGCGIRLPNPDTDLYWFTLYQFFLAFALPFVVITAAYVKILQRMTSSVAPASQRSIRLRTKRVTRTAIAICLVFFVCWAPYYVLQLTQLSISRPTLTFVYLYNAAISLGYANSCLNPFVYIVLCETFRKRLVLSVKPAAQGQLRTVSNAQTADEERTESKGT
As to the kind of experiment: Assessment of in vivo MCHR1 activity (body weight and food consumption in rats with choice of diets). Set-up: species or system Sprague Dawley rats. The conditions noted are these: 3 mg/kg p.o. daily, day 0 through day 4, male Sprague Dawley rats. As to the method: Male Sprague Dawley (CD, Charles River Breeding Laboratory) rats weighing approximately 240 grams were placed in individual plastic cages with AlphaDri bedding. The room was maintained at 72° F. and 50% humidity, and a 12/12 light dark cycle with lights out at 1600 hours. The rats were conditioned for 5 days prior to the start of the study to having a choice of foods.
Baseline body weight was measured prior to drug treatment on day 0 of the study. Baseline food consumption was the average of the 3 days prior to the first drug treatment. […] All data were evaluated using ANOVA and Fishers PLSD statistics.
Take `COc1cc(-n2ccnc(Sc3ccc(C(F)(F)F)cc3)c2=O)ccc1OCC(C)(C)OC(=O)CN` [Example 193, 1-(2-Methoxy-4-(2-oxo-3-(4-(trifluoromethyl)phenylthio)pyrazin-1(2H)-yl)phenoxy)-2-methylpropan-2-yl 2-aminoacetate]: the “Weight Reduction versus Vehicle” value was found to be 0.7%.

The same experiment, now with this note: 10 mg/kg p.o. daily, day 0 through day 4, male Sprague Dawley rats.
`COc1cc(-n2ccnc(Sc3ccc(C(F)(F)F)cc3)c2=O)ccc1OCC(C)(C)OC(=O)CN` [Example 193, 1-(2-Methoxy-4-(2-oxo-3-(4-(trifluoromethyl)phenylthio)pyrazin-1(2H)-yl)phenoxy)-2-methylpropan-2-yl 2-aminoacetate]: the “Weight Reduction versus Vehicle” value stood at 2.1%.

The experiment is the same for the next values; noted with them: 30 mg/kg p.o. daily, day 0 through day 4, male Sprague Dawley rats.
Take `COc1cc(-n2ccnc(Sc3ccc(C(F)(F)F)cc3)c2=O)ccc1OCC(C)OC(=O)[C@@H](N)C(C)C` (stereo in doubt) [Example 202, 1-(2-Methoxy-4-(2-oxo-3-(4-(trifluoromethyl)phenylthio)pyrazin-1(2H)-yl)phenoxy)propan-2-yl 2-amino-3-methylbutanoate]: the “Weight Reduction versus Vehicle” value came out at 2.2%.

`COc1cc(-n2ccnc(Sc3ccc(C(F)(F)F)cc3)c2=O)ccc1OCC(C)(C)OC(=O)CN` [Example 193, 1-(2-Methoxy-4-(2-oxo-3-(4-(trifluoromethyl)phenylthio)pyrazin-1(2H)-yl)phenoxy)-2-methylpropan-2-yl 2-aminoacetate]: the “Weight Reduction versus Vehicle” value is 3.4%.

Still in this experiment, the particulars now being: 45 mg/kg p.o. daily, male Sprague Dawley rats.
On to `COc1cc(-n2ccnc(SCCc3ccccn3)c2=O)ccc1OCC(C)(C)O` [Example 27, 1-(4-(2-Hydroxy-2-methylpropoxy)-3-methoxyphenyl)-3-(2-(pyridin-2-yl)-ethylthio)pyrazin-2(1H)-one], for which the “Weight Reduction versus Vehicle” value stood at 4.1%.

`Cc1cc(-n2ccnc(SCCc3ccccc3)c2=O)ccc1OCC(C)(C)O` [Example 113, 1-(4-(2-Hydroxy-2-methylpropoxy)-3-methylphenyl)-3-(phenethylthio)pyrazin-2(1H)-one]: the “Weight Reduction versus Vehicle” value is listed as 4.2%.

For the next experiment, the target named is T2, human melanin concentrating hormone receptor (MCHR1) (Homo sapiens, UniProt Q99705, A5T/E4Q).
T2 construct: expressed in transfected cells; host or cells: HEK-293 (stably transfected), membranes
T2 sequence (Q99705 whole entry E4Q/A5T): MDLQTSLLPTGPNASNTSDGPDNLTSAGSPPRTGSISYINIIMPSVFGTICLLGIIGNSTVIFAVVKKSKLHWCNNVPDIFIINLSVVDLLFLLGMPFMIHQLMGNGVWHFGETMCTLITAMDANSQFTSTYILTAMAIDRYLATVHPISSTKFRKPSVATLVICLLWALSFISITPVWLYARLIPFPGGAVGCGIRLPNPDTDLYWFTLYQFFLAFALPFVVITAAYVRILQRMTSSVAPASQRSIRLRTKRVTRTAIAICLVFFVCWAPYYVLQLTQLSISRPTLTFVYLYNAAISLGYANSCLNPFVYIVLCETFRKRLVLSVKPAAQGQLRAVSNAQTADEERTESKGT
As to the kind of experiment: Radioligand binding assay for assessment of MCHR1 activity. The conditions noted are these: membranes of HEK-293 cells expressing mutated hMCHR1; competition with [125I]-MCH. As to the method:
Compounds of Formula I were initially characterized in an in vitro binding assay to determine their Ki or ability to antagonize binding of a peptide agonist to the human melanin concentrating hormone receptor (MCHR1).
Membranes from stably transfected HEK-293 cells expressing a mutated (E4Q, AST) hMCHR1 receptor were prepared by dounce homogenization and differential centrifugation. Binding experiments were carried out with 0.5-1.0 ug of membrane protein incubated in a total of 0.2 ml in 25 mM HEPES (pH 7.4) with 10 mM MgCl2, 2 mM EGTA, and 0.1% BSA (Binding Buffer) for 90 min. For competition binding assays, reactions were carried out in the presence of with 0.06-0.1 nM [Phe^n, [^125I]Tyr^19]-MCH and increasing concentrations of unlabeled test molecules. Reactions were terminated by rapid vacuum filtration over 96 well-GFC Unifilter plates pre-coated with 0.075 ml binding buffer containing 1% BSA, and washed 3 times with 0.4 ml of Phospho-buffered Saline (pH 7.4) containing 0.01% TX-100. Filters were dried; 0.05 ml microscint 20 was added to each well and radioactivity was subsequently quantified by scintillation counting on a TopCount™ microplate scintillation counter (Packard). Inhibitory constants were determined by nonlinear least squares analysis using a four parameter logistic equation.
Turning to `COc1ccc(-n2ccnc(SCCc3ccc(Cl)cc3)c2=O)cc1OC` [Example 3], the affinity, expressed as Ki, was 576 nM. This lies in the sub-micromolar range. `COc1ccc(-n2ccnc(Sc3ccc(OC(F)(F)F)cc3)c2=O)cc1OC` [Example 10] came in with an inhibition constant (Ki) of 141 nM.

With `COc1cc(-n2ccnc(SCCCc3ccccc3)c2=O)ccc1OC[C@@H](C)O` [Example 19], affinity was put at a Ki of 3130 nM. On the same count and under the same terms, the figure for `COc1cc(-n2ccnc(SCCc3ccccn3)c2=O)ccc1OCC(C)(C)O` [Example 27, 1-(4-(2-Hydroxy-2-methylpropoxy)-3-methoxyphenyl)-3-(2-(pyridin-2-yl)-ethylthio)pyrazin-2(1H)-one] is 63 nM; for `COc1cc(-n2ccnc(SCCc3ccncc3)c2=O)ccc1OCC(C)(C)O` [Example 28] it is 3150 nM; for `COc1cc(-n2ccnc(Sc3ccc(C(F)(F)F)cc3)c2=O)ccc1OCC(C)(C)O` [Example 36] it is 33 nM.

As for `COc1cc(-n2ccnc(Sc3ccc(OC(F)(F)F)cc3)c2=O)ccc1OCC(C)(C)O` [Example 38], the Ki was found to be 20 nM.

Molecule `COc1cccc(Sc2nccn(-c3ccc(OCC(C)(C)O)c(OC)c3)c2=O)c1` [Example 39] showed a Ki of 1580 nM. Compared with the last molecule, the Ki is about 79-fold higher.

Consider `COc1cc(-n2ccnc(Sc3ccccc3C(F)(F)F)c2=O)ccc1OCC(C)(C)O` [Example 40], for which the Ki was found to be 3220 nM. Take `COc1cc(-n2ccnc(SC(C)Cc3ccccc3)c2=O)ccc1OCC(C)(C)O` (stereo not shown) [Example 46]: the affinity corresponds to a Ki of 232 nM. Take `COc1cc(-n2ccnc(Sc3ccccc3)c2=O)ccc1OCC(C)(C)O` [Example 49]: affinity was put at a Ki of 3040 nM.

In turn, `COc1cc(-n2ccnc(SCc3ccccc3)c2=O)ccc1OCC(C)(C)O` [Example 50] came in with an inhibition constant (Ki) of 4660 nM. This Ki lies about 1.5-fold higher than the previous one. `COc1cc(-n2ccnc(Sc3nc4ccc(Cl)cc4s3)c2=O)ccc1OCC(C)(C)O` [Example 59] registered a Ki of 125 nM. On the same count and under the same terms, the figure for `CCc1cc(-n2ccnc(SCCc3ccccc3)c2=O)ccc1OCC(C)(C)O` [Example 65] is 10 nM. Still for that read-out and setting: the figure for `COc1cc(-n2ccnc(Sc3ccc(OC(F)(F)F)cc3)c2=O)ccc1OCC(O)C1CC1` (stereo not shown) [Example 67] is 28 nM. On the same count and under the same terms, next, `COc1cc(-n2ccnc(Sc3ccc(C(F)(F)F)cc3)c2=O)ccc1O[C@H]1COC[C@H]1O` [Example 69]: 49 nM; `COc1cc(-n2ccnc(Sc3ccc(C(F)(F)F)cc3)c2=O)ccc1OCC(C)O` (stereo not shown) [Example 71]: 62 nM. As to `Cc1cc(-n2ccnc(Sc3ccc(C(F)(F)F)cn3)c2=O)ccc1OCC(C)(C)O` [Example 95, 1-(4-(2-Hydroxy-2-methylpropoxy)-3-methylphenyl)-3-(5-(trifluoromethyl)pyridin-2-ylthio)pyrazin-2(1H)-one], the Ki came to 41 nM. Still for that read-out and setting: next, `Cc1cc(-n2ccnc(SCCc3ccccn3)c2=O)ccc1OCC(C)(C)O` [Example 110, 1-(4-(2-Hydroxy-2-methylpropoxy)-3-methylphenyl)-3-(2-(pyridin-2-yl)ethylthio)pyrazin-2(1H)-one]: 17 nM; `Cc1cc(-n2ccnc(SCCc3ccccc3)c2=O)ccc1OCC(C)(C)O` [Example 113, 1-(4-(2-Hydroxy-2-methylpropoxy)-3-methylphenyl)-3-(phenethylthio)pyrazin-2(1H)-one]: 8 nM; `Cc1cc(-n2ccnc(SCCc3ccc(F)cc3)c2=O)ccc1OCC(C)(C)O` [Example 124]: 9 nM. Same read-out and setting: next, `CCc1cc(-n2ccnc(SCCc3ccc(F)cc3)c2=O)ccc1OCC(C)(C)O` [Example 125]: 17 nM; `COc1cc(-n2ccnc(SCCc3cccc(F)c3)c2=O)ccc1OCC(C)(C)O` [Example 131]: 18 nM; `CC(C)(O)COc1ccc(-n2ccnc(OCCc3ccc(F)cc3)c2=O)cc1Cl` [Example 141]: 78 nM. The same measure, in the same setting: the figure for `CCc1cc(-n2ccnc(OCCc3ccc(Cl)cc3)c2=O)ccc1OCC(C)(C)O` [Example 151] is 64 nM; for `Cc1cc(-n2ccnc(OCCc3cccc(Cl)c3)c2=O)ccc1OCC(C)(C)O` [Example 155] it is 45 nM. `CC(C)(O)COc1ccc(-n2ccnc(Sc3ccc(C(F)(F)F)cc3)c2=O)cn1` [Example 157]: the Ki stood at 1730 nM. This Ki is about 38-fold higher than that of the molecule before. On to `CC(C)(O)COc1ncc(-n2ccnc(SCCc3ccccn3)c2=O)cc1Cl` [Example 169], for which the Ki came out at 1290 nM. The Ki values of the last two molecules are within 1.5-fold of each other. On the same count and under the same terms, next, `Cc1cc(-n2ccnc(Sc3ccc(C(F)(F)F)cc3)c2=O)cnc1OCC(C)(C)O` [Example 170]: 132 nM; `Cc1cc(-n2ccnc(SCCc3ccccc3)c2=O)cnc1OCC(C)(C)O` [Example 172]: 85 nM; `Cc1cc(=O)n(CC(C)(C)O)c2ccc(-n3ccnc(Sc4ccc(OC(F)(F)F)cc4)c3=O)cc12` [Example 178]: 290 nM.

The Ki is the dissociation constant of the complex between target and ligand, obtained from inhibition or displacement. High values mean lower affinity, low ones higher affinity.

Source of the values: patent US8012984B2, “Substituted pyrazinone melanin concentrating hormone receptor-1 antagonists and methods” (Bristol-Myers Squibb Company, priority 2007, dated 2011).
